In patent publication US8791267B2, “Biaryl PDE4 inhibitors for treating inflammatory, cardiovascular and CNS disorders” (Decode Genetics EHF, priority 2007, dated 2014):
Structures can show the parent of a compound that is named as a salt.

target: PDE4 (Homo sapiens, UniProt Q08499); assay: In-vitro assay for PDE4 enzymes, real-time enzyme-coupled spectrophotometric assay (Table 9); format: biochemical; conditions: not given
Sequence (Q08499 whole entry): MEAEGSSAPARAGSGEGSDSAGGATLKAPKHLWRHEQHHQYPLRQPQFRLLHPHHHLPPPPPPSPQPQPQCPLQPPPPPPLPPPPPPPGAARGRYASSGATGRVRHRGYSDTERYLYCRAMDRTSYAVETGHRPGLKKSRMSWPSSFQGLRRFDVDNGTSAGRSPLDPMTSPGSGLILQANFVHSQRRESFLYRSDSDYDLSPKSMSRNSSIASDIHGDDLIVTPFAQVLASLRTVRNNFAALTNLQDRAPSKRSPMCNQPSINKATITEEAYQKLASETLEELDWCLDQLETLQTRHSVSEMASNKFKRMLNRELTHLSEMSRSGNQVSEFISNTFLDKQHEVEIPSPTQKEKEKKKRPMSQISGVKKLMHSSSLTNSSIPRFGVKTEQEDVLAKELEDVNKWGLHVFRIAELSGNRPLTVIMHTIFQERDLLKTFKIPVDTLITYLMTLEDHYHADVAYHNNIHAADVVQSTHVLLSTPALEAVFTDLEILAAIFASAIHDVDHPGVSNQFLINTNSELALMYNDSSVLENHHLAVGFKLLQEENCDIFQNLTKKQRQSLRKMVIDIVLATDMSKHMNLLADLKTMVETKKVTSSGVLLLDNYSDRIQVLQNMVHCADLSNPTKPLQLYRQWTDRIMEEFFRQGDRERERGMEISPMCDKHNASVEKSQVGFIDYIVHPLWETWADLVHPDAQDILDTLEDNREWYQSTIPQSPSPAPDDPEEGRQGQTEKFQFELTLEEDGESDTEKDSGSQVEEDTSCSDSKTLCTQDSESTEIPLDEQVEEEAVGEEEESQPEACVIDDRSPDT

SMILES | IC50
COc1ccc(Cc2ccc(CNC(=O)Oc3ccccc3)nc2)c(F)c1-c1cccc(Cl)c1 [P-520, [5-(3′-Chloro-2-fluoro-6-methoxy-biphenyl-3-ylmethyl)-pyridin-2-ylmethyl]-carbamic acid phenyl ester] | < 5 µM

same assay, conditions: human PDE4D; activity class, Table 9; read-out: hPDE4D

IC50 | SMILES
20 to 40 µM | COc1ccc(CN2CCC[C@@H]2CO)cc1-c1cccc([N+](=O)[O-])c1 [P-493, [(R)-1-(6-Methoxy-3′-nitro-biphenyl-3-ylmethyl)-pyrrolidin-2-yl]-methanol]
5 to 20 µM | O=CNCc1ccccc1Cc1ccc(O)c(-c2cccc([N+](=O)[O-])c2)c1 [P-501, N-[2-(6-Hydroxy-3′-nitro-biphenyl-3-ylmethyl)-benzyl]-formamide]
< 5 µM | NC(=O)Nc1ccc(Cc2ccc(OC(F)F)c(-c3cccc(Cl)c3)c2)cn1 [P-616, [5-(3′-Chloro-6-difluoromethoxy-biphenyl-3-ylmethyl)-pyridin-2-yl]-urea]
< 5 µM | COc1ccc(Cc2ccc(F)cc2)cc1-c1ccc2c(c1)OC(F)(F)O2 [P-141, 2,2-Difluoro-5-[5-(4-fluoro-benzyl)-2-methoxy-phenyl]-benzo[1,3]dioxole]
< 5 µM | CNc1ccc(Cc2ccc(OC)c(-c3cccc(Cl)c3)c2)cc1 [P-476, [4-(3′-Chloro-6-methoxy-biphenyl-3-ylmethyl)-phenyl]-methyl-amine hydrochloric acid]
< 5 µM | COc1ccc(Cc2ccc(N3CCC(O)C3)nc2)c(F)c1-c1cccc(Cl)c1 (centres unmarked) [P-601, 1-[5-(3′-chloro-2-fluoro-6-methoxy-biphenyl-3-ylmethyl)-pyridin-2-yl]-pyrrolidin-3-ol]
< 5 µM | COc1ccc(Cn2nc(C(F)(F)F)cc2-c2cccnc2)c(F)c1-c1cccc(Cl)c1 [P-552, 3-[2-(3′-Chloro-2-fluoro-6-methoxy-biphenyl-3-ylmethyl)-5-trifluoromethyl-2H-pyrazol-3-yl]-pyridine hydrochloride salt]
< 5 µM | COc1ccc(COc2ccc(Br)cn2)c(F)c1-c1cccc(Cl)c1 [P-574]
< 5 µM | COc1ccc(Cc2ccc(NC(N)=O)cc2)c(F)c1-c1cccc(C(C)O)c1 (centres unmarked) [P-340, {4-[2-Fluoro-3′-(1-hydroxy-ethyl)-6-methoxy-biphenyl-3-ylmethyl]-phenyl}-urea]
< 5 µM | COc1ccc(N(C)c2ccc(NC(N)=O)cc2)cc1-c1cccc(Cl)c1 [P-293, {4-[(3′-Chloro-6-methoxy-biphenyl-3-yl)-methyl-amino]-phenyl}-urea]
< 5 µM | COc1ccc(COc2ccc(NC(N)=O)cc2)c(F)c1-c1cccc(Cl)c1 [P-589]
5 to 20 µM | NC(=O)Nc1ccc(Cc2ccc(OC3CNC3)c(-c3cccc(Cl)c3)c2)cc1 [P-554, {4-[6-(Azetidin-3-yloxy)-3′-chloro-biphenyl-3-ylmethyl]-phenyl}-urea]
< 5 µM | COCc1cccc(-c2cc(Cn3cncn3)ccc2OC)c1 [P-108, 1-(6-Methoxy-3′-methoxymethyl-biphenyl-3-ylmethyl)-1H-[1,2,4]triazole]
< 5 µM | CCNC(=O)N1CCN(c2ccc(Cc3ccc(OC)c(-c4cccc(Cl)c4)c3F)cn2)CC1 [P-514, 4-[5-(3′-chloro-2-fluoro-6-methoxy-biphenyl-3-ylmethyl)-pyridin-2-yl]-piperazine-1-carboxylic acid ethylamide hydrochloride]
< 5 µM | COc1ccc(Cc2ccc(C(C)NC(N)=O)nc2)c(F)c1-c1cccc(Cl)c1 (centres unmarked) [P-613, {1-[5-(3′-Chloro-2-fluoro-6-methoxy-biphenyl-3-ylmethyl)-pyridin-2-yl]-ethyl}-urea hydrochloride]
< 5 µM | CNCC(=O)Nc1ccc(Cc2ccc(OC)c(-c3cccc(Cl)c3)c2F)cc1 [P-289]
< 5 µM | COc1ccc(Cn2cncn2)cc1-c1cccc([N+](=O)[O-])c1 [P-005]
< 5 µM | COc1ccc(Cc2ccc(F)cc2)cc1-c1cccc(SC)c1 [P-151, 5-(4-Fluoro-benzyl)-2-methoxy-3′-methylsulfanyl-biphenyl]
< 5 µM | COc1ccc(Cc2ccc(N3CCOCC3)nc2)cc1-c1cccc(Cl)c1 [P-572, 4-[5-(3′-chloro-6-methoxy-biphenyl-3-ylmethyl)-pyridin-2-yl]-morpholine]
< 5 µM | COc1ccc(Cc2ccc(N3[C@@H](C)CC[C@@H]3C)nc2)c(F)c1-c1cccc(Cl)c1 [P-577, 5-(3′-Chloro-2-fluoro-6-methoxy-biphenyl-3-ylmethyl)-2-((2S,5S)-2,5-dimethyl-pyrrolidin-1-yl)-pyridine]
< 5 µM | CCNC(=O)Nc1ccc([S+]([O-])c2ccc(OC)c(-c3cccc(Cl)c3)c2)cc1 (centres unmarked) [P-449, 1-[4-(3′-Chloro-6-methoxy-biphenyl-3-sulfinyl)-phenyl]-3-ethyl urea]
< 5 µM | COc1ccc(Cc2ccc(N3CCC[C@H]3C(C)(C)O)nc2)c(F)c1-c1cccc(Cl)c1 [P-581, 2-{(S)-1-[5-(3′-chloro-2-fluoro-6-methoxy-biphenyl-3-ylmethyl)-pyridin-2-yl]-pyrrolidin-2-yl}-propan-2-ol]
< 5 µM | COc1ccc(COc2cccc(N)c2)c(F)c1-c1cccc(Cl)c1 [P-232]
20 to 40 µM | COc1ccc(Cn2cncn2)cc1-c1ccc2[nH]ccc2c1 [P-486, 5-(2-Methoxy-5-[1,2,4]triazol-1-ylmethyl-phenyl)-1H-indole]
5 to 20 µM | COc1ccc(CN2CCOCC2)nc1-c1cccc([N+](=O)[O-])c1 [P-026, 4-[5-methoxy-6-(3-nitro-phenyl)-pyridin-2-ylmethyl]-morpholine]

IC50 | SMILES
< 5 µM | COc1ccc(Cc2ccc(C(C)N3CCC3)nc2)cc1-c1cccc(Cl)c1 (centres unmarked) [P-609, 2-(1-azetidin-1-yl-ethyl)-5-(3′-chloro-6-methoxy-biphenyl-3-ylmethyl)-pyridine]
5 to 20 µM | COCCOc1ccc(Cc2ccc(=O)n(CCOC)n2)cc1-c1cccc([N+](=O)[O-])c1 [P-018, 6-[6-(2-Methoxy-ethoxy)-3′-nitro-biphenyl-3-ylmethyl]-2-(2-methoxy-ethyl)-2H-pyridazin-3-one]
20 to 40 µM | COc1ccc(Cn2cncn2)cc1-c1cccc(S(C)(=O)=O)c1 [P-495, 1-(3′-Methanesulfonyl-6-methoxy-biphenyl-3-ylmethyl)-1H-[1,2,4]triazole]
< 5 µM | O=[N+]([O-])c1cccc(-c2cc(Cc3ccc(F)cc3)ccc2OC(F)(F)F)c1 [P-080, 5-(4-Fluoro-benzyl)-3′-nitro-2-trifluoromethoxy-biphenyl]
< 5 µM | COc1ccc(COc2ccnc(N3CCCC3)c2)cc1-c1cccc(Cl)c1 [P-607]
< 5 µM | COc1ccc(Cn2cnc3ccccc32)cc1-c1cccc([N+](=O)[O-])c1 [P-483, 1-(6-Methoxy-3′-nitro-biphenyl-3-ylmethyl)-1H-benzoimidazole]
< 5 µM | NC(=O)Nc1ccc(Cc2ccc(OCC3CCCO3)c(-c3cccc(Cl)c3)c2)cc1 (centres unmarked) [P-543, {4-[3′-Chloro-6-(tetrahydro-furan-2-ylmethoxy)-biphenyl-3-ylmethyl]-phenyl}-urea]
< 5 µM | COc1ccc(CO)c(O)c1-c1cccc([N+](=O)[O-])c1 [P-149]
20 to 40 µM | COc1ccc(CN2C(=O)CC[C@@H]2CO)cc1-c1cccc([N+](=O)[O-])c1 [P-132, (R)-5-Hydroxymethyl-1-(6-methoxy-3′-nitro-biphenyl-3-ylmethyl)-pyrrolidin-2-one]
< 5 µM | COc1ccc(Cc2ccc(F)cc2)cc1-n1cc(Cl)cn1 [P-380, 4-Chloro-1-[5-(4-fluoro-benzyl)-2-methoxy-phenyl]-1H-pyrazole]
< 5 µM | COc1ccc(-c2cc(Cc3ccc(F)cc3)ccc2OC)cc1C(C)=O [P-170, 1-[5′-(4-Fluoro-benzyl)-4,2′-dimethoxy-biphenyl-3-yl]-ethanone]
< 5 µM | COc1ccc(Cc2ccc(CNS(C)(=O)=O)c(F)c2)c(F)c1-c1cccc(Cl)c1 [P-286]
< 5 µM | FC(F)Oc1ccc(Cc2ccc(N3CCC3)nc2)cc1-c1cccc(Cl)c1 [P-614, 2-Azetidin-1-yl-5-(3′-chloro-6-difluoromethoxy-biphenyl-3-ylmethyl)-pyridine]
< 5 µM | [2H]C(O)(c1ccc(N)cc1)c1ccc(OC)c(-c2cccc(Cl)c2)c1F (centres unmarked) [P-538, deutero-(4-amino-phenyl)-(3′-chloro-2-fluoro-6-methoxy-biphenyl-3-yl)-methanol]
< 5 µM | COc1ccc(Cc2ccc(F)cc2)c(C#N)c1-c1cccc([N+](=O)[O-])c1 [P-163, 3-(4-fluoro-benzyl)-6-methoxy-3′-nitro-biphenyl-2-carbonitrile]
< 5 µM | COc1ccc(Cc2ccc(NC(C)=O)cc2)c(F)c1-c1cccc(N)c1 [P-167]
< 5 µM | COc1ccc(Cc2ccc(C(C)(C)N)nc2)c(F)c1-c1cccc(Cl)c1 [P-595, 1-[5-(3′-Chloro-2-fluoro-6-methoxy-biphenyl-3-ylmethyl)-pyridin-2-yl]-1-methyl-ethylamine]
5 to 20 µM | CN(C)CCOc1ccc(Cc2ccc(NC(N)=O)cc2)cc1-c1cccc(Cl)c1 [P-548, {4-[3′-Chloro-6-(2-dimethylamino-ethoxy)-biphenyl-3-ylmethyl]-phenyl}-urea]
< 5 µM | CC(=O)Nc1ccc(NCc2ccc(O)c(-c3cccc(Cl)c3)c2F)cc1 [P-203, N-{4-[(3′-Chloro-2-fluoro-6-hydroxy-biphenyl-3-ylmethyl)-amino]-phenyl}-acetamide]
< 5 µM | COc1ccc(Cc2ccc(F)cc2)cc1-n1ccc(C(F)(F)F)n1 [P-396, 1-[5-(4-Fluoro-benzyl)-2-methoxy-phenyl]-3-trifluoromethyl-1H-pyrazole]
< 5 µM | COc1ccc(N(C)c2ccc(N)cc2)cc1-c1cccc(Cl)c1 [P-288, N-(3′-Chloro-6-methoxy-biphenyl-3-yl)-N-methyl-benzene-1,4-diamine; hydrochloride]
5 to 20 µM | COc1ccc(CN2CC[C@@H](O)C2)cc1-c1cccc(C(F)(F)F)c1 [P-078]
< 5 µM | CN(C)CC(=O)Nc1ccc(Cc2ccc(OC(F)F)c(-c3cccc(Cl)c3)c2)cn1 [P-618, N-[5-(3′-Chloro-6-difluoromethoxy-biphenyl-3-ylmethyl)-pyridin-2-yl]-2-dimethylamino-acetamide hydrochloride]
< 5 µM | COc1ccc(Cc2ccc(N3CC[C@H]3C(N)=O)nc2)c(F)c1-c1cccc(Cl)c1 [P-615, (S)-1-[5-(3′-chloro-2-fluoro-6methoxy-biphenyl-3-ylmethyl)-pyridin-2-yl]-azetidine-2-carboxylic acid amide]
